Entries after “also recorded” stand apart in the source; their conditions may differ. Non-standard residues stand in square brackets, D forms with d. Residues, ends and D or L forms follow the SMILES beside them. No end group written: not given here. *: point of attachment. X1 = CCN(CC)c1ccc(/C=C/c2cc[n+](CC(=O)*)cc2)cc1; Ahx = NCCCCCC(=O)O
Tests used:
WT-EBNA1 [1] = molecular target: T1, WT-EBNA1 (Epstein-Barr virus, UniProt P03211); assay: Emission quantum yield in the presence of WT-EBNA1; settings: in water, saturated WT-EBNA1, λex=480 nm
T1 sequence (P03211 379-641): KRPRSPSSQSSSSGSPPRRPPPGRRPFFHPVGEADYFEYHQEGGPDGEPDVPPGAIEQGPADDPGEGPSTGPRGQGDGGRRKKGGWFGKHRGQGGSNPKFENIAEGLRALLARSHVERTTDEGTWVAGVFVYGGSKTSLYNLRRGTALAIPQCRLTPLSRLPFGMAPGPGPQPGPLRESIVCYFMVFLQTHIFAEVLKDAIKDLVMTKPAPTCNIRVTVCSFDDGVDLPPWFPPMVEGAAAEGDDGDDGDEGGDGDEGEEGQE

WT-EBNA1 [2] = molecular target: T1, WT-EBNA1; assay: biochemical; assay type: binding; design: Wild type EBNA1 protein (379-641 a.a.) fusing with glutathione S-transferase is expressed in Escherichia coli; GST (glutathione S-transferase); made in house; host or cells: Escherichia coli (BL21); settings: for emission intensity increase on addition of WT-EBNA1: 4 μM WT-EBNA1, PBS buffer
Procedure: Bind constant via luminescence titration: Luminescence titration analysis is conducted with gradually addition of WT EBNA1 to evaluate the binding constants between the three peptide conjugates and WT EBNA1. […] The binding constants for Ka are obtained from the double logarithm regression curve: lg[(I−I0)/I0]=lg Ka+n lg[G] equation 2
Where I and I0 are current and initial fluorescence, respectively, Ka is the binding constant, n is the number of binding sites per WT EBNA1, and [G] is total concentration of WT EBNA1.
Protein samples preparation. Five protein samples are used.

[3] = test system: EBV-positive (C666-1 and NPC43) and EBV-negative (CNE2 and HeLa) cell lines; assay: In vitro confocal imaging and co-staining; assay type: cell-based, human; settings: 10 μM, 6 h
Procedure: HeLa is EBV-negative human cervical carcinoma cells, CNE2 is EBV-negative nasopharyngeal carcinoma cells, C666-1 is EBV-positive nasopharyngeal carcinoma cells, and NPC 43 is the newly derived EBV-positive nasopharyngeal carcinoma cells.
The cells are incubated with 6 hours before monitoring imaging.

[4] = Emission quantum yield in water, comparative method using rhodamine 6G; assay type: physicochemical; settings: λex=480 nm, without WT-EBNA1
Procedure: Quantum yields of L2Pn are evaluated by the following equation 1: […]
Where the subscripts r and s denote reference and sample respectively, ϕ is the quantum yield, G is the slope from the plot integrated emission intensity vs absorbance, and η is the refractive index of the solvent. The correction curve is obtained by comparing the experimentally recorded spectrum of the standard rhodamine 6G with the published data.

Compound	emission quantum yield + WT EBNA1 (WT-EBNA1 [1])	Kd (WT-EBNA1 [2])	selectivity towards WT-EBNA1 (emission enhancement vs other proteins, ions) (WT-EBNA1 [2]; 2 μM in PBS buffer, vs BSA, mutant EBNA1, ZnCl2, NaHCO3, CuCl2, citrates)	emission intensity increase on addition of WT-EBNA1 (WT-EBNA1 [2])	subcellular localization in EBV-positive cells [3]	emission quantum yield [4]
CCN(CC)c1ccc(/C=C/c2cc[n+](CC(=O)N[C@@H](CS)C(=O)NCCCCCC(=O)N[C@@H](CCCNC(=N)N)C(=O)N[C@H](CCCNC(=N)N)C(=O)N[C@@H](CCCNC(=N)N)C(=O)N[C@@H](CCCCN)C(=O)NCC(=O)NCC(=O)N[C@@H](Cc3ccc(O)cc3)C(=O)N[C@@H](Cc3ccccc3)C(=O)N[C@@H](CCSC)C(=O)N[C@H](C(=O)N[C@@H](Cc3ccccc3)C(N)=O)C(C)C)cc2)cc1 [L2P3] (X1-C[Ahx]R[dR]RKGGYFMVF-NH2)	13.0%	3.16 µM	selective towards WT-EBNA1	4.7 fold	can goes into C666-1 cell nucleus; also recorded: nuclear localization	4.3%
L2P2: peptide conjugate of L2 (4-(4-(Diethylamino)styryl)-N-carboxymethylpyridinium chloride) and peptide P2 YFMVF (also: conjugated to L2, site not given here)	3.8%			no intensity change; also recorded: did not show any enhancements	cytoplasm location only; also recorded: only found in the cytoplasm	4.4%

Source: patent US10137115B2, “Therapeutic inhibitor for EBV-associated tumor with tailor responsive optical imaging” (priority 2016, dated 2018)
